Among the data in ChEMBL document CHEMBL3407420, “In silico studies, synthesis and binding evaluation of substituted 2-pyrrolidinones as peptidomimetics of RGD tripeptide sequence” (Eur J Med Chem, 2015) are IC50 values, retold here.

As usually defined, the IC50 is the point on the concentration scale where inhibition reaches its midpoint. Read a high IC50 as weaker potency.

Bounds are passed on as bounds.

In assay [1] the target is Integrin alpha-V/beta-5 (Homo sapiens, UniProt P06756+P18084). Kind of assay: Binding affinity to alphaVbeta5 receptor (unknown origin). Format: protein-complex assay.
Chain of Integrin alpha-V/beta-5 (P06756 31-889 limits assumed): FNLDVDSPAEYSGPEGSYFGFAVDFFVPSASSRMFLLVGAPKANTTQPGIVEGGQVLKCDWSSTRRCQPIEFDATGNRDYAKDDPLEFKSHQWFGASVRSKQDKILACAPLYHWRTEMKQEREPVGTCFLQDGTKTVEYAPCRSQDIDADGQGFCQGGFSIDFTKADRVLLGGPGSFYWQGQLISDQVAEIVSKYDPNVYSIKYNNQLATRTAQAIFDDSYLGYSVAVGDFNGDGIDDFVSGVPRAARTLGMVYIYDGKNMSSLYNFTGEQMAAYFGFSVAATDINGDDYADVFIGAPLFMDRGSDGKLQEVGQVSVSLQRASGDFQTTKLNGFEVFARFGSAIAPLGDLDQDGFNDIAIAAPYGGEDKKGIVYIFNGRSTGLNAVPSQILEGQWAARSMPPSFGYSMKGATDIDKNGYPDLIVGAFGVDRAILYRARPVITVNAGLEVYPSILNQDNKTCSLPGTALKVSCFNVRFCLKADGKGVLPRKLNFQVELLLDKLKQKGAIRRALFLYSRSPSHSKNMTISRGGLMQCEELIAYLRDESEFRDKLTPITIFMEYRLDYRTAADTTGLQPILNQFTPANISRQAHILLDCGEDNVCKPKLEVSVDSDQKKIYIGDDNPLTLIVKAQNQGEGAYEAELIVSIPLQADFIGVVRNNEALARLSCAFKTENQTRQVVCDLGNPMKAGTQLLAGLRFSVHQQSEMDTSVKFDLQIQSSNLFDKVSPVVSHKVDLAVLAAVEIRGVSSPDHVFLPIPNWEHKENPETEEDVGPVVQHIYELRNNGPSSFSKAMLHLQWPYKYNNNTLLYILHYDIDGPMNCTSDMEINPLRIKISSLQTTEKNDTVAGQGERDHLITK
Chain of Integrin alpha-V/beta-5 (P06756 891-1048 limits assumed): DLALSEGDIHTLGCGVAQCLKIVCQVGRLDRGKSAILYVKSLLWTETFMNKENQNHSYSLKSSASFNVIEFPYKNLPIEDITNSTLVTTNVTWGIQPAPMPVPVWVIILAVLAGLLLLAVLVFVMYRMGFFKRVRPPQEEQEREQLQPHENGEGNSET
Chain of Integrin alpha-V/beta-5 (P18084 24-799 limits assumed): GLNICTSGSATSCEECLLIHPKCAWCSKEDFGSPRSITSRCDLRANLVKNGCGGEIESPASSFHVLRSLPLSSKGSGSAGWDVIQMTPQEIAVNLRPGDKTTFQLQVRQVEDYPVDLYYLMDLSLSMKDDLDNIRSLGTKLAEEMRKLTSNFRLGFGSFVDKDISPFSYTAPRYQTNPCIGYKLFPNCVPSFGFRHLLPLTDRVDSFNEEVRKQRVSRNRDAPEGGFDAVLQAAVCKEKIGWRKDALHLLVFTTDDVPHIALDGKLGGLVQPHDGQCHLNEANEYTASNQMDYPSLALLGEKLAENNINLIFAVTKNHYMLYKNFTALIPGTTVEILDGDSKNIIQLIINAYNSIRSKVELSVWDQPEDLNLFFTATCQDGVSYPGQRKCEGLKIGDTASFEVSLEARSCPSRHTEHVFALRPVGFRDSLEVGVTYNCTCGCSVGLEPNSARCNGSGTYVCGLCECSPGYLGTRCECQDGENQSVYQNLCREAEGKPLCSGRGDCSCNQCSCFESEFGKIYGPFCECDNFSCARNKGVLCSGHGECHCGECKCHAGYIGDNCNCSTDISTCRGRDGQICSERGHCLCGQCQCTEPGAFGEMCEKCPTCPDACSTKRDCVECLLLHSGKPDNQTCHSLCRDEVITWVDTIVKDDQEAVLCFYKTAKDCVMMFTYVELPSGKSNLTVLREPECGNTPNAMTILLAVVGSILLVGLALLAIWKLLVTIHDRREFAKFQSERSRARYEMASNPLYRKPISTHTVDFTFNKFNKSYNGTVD
For assay [2], the target named is Integrin alpha-V/beta-3 (Homo sapiens, UniProt P05106+P06756). Kind of assay: Displacement of [125I]echistatin from purified human alphaVbeta3 receptor after 3 hrs by gamma counting. Format: protein-complex assay.
Chain of Integrin alpha-V/beta-3 (P05106 27-788 limits assumed): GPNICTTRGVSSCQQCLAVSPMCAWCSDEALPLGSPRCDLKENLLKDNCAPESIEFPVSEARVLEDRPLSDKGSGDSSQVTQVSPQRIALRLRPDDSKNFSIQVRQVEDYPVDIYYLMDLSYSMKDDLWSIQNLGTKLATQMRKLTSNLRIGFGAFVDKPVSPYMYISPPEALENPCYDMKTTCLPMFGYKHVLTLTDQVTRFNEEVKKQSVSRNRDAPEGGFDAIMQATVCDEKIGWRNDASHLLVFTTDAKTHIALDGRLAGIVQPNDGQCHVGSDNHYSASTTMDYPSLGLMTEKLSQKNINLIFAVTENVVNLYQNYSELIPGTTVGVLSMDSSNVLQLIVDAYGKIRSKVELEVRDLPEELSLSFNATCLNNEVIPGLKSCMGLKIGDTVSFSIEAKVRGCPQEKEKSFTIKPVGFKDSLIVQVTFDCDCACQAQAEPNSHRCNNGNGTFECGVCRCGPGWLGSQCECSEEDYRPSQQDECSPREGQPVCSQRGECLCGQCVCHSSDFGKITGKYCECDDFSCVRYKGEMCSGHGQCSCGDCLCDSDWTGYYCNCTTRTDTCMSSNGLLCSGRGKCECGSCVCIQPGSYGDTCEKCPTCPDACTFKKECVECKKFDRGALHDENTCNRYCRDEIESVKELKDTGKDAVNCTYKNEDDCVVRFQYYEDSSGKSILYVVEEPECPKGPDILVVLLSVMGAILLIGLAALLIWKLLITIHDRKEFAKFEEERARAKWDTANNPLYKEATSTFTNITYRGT
Chain of Integrin alpha-V/beta-3 (P06756 31-889 limits assumed): as the sequence (P06756 31-889 limits assumed) above
Chain of Integrin alpha-V/beta-3 (P06756 891-1048 limits assumed): as the sequence (P06756 891-1048 limits assumed) above

For `N=C(N)NCCC[C@@H]1NC(=O)[C@H](CCCCN)NC(=O)[C@@H](Cc2ccccc2)NC(=O)[C@H](CC(=O)O)NC(=O)CNC1=O`, in assay [1], the IC50 amounted to 30 µM.

In the case of `N=C(N)NCCC[C@@H]1CCN([C@@H](CCCCN)C(=O)NCCC(=O)O)C1=O`, the half-maximal inhibitory concentration (IC50) in assay [2] is 50 µM.

In turn, `N=C(N)NCCC[C@@H]1CCN([C@@H](CCCCNC(=O)OCc2ccccc2)C(=O)NCCC(=O)O)C1=O` displayed an IC50 in assay [2] of 100 µM.

Consider `N=C(N)NCCNC(=O)[C@H](CCCCNC(=O)OCc1ccccc1)N1CC[C@H](CCC(=O)O)C1=O`, for which the half-inhibitory concentration (IC50) in assay [2] is over 100 µM.
